Laboratory results as given in ChEMBL document CHEMBL5370589, “Heterologous Production and Biosynthesis of Threonine-16:0dioic acids with a Hydroxamate Moiety” (J Nat Prod, 2023).
Calls of active or inactive are those of the source. The calls are words filed in the database; no cut-off is given here.

Columns and labels:
[1] = Metal chelating activity assessed as compound-[…] complex formation by chrome-azurol S assay
Staphylococcus aureus = experiment: Antibiotic activity against Staphylococcus aureus Newman assessed as reduction in bacterial cell growth at 0.03 to 64 microg/ml; assay type: functional, organism-based; settings: dose 0.03-64 µg/ml
Escherichia coli = experiment: Antibiotic activity against wild-type Escherichia coli BW25113 assessed as reduction in bacterial cell growth at 0.03 to 64 microg/ml; assay type: functional, organism-based; settings: dose 0.03-64 µg/ml
HepG2 = experiment: Cytotoxicity against human HepG2 cells assessed as reduction in cell viability; assay type: toxicity, cell-based
Enterococcus mundtii = experiment: Antibiotic activity against Enterococcus mundtii DSM-4840 assessed as reduction in bacterial cell growth at 0.03 to 64 microg/ml; assay type: functional, organism-based; settings: dose 0.03-64 µg/ml
Micrococcus luteus = experiment: Antibiotic activity against Micrococcus luteus DSM-20030 assessed as reduction in bacterial cell growth at 0.03 to 64 microg/ml; assay type: functional, organism-based; settings: dose 0.03-64 µg/ml
Erwinia persicina = experiment: Antibiotic activity against Erwinia persicina DSM-19328 assessed as reduction in bacterial cell growth at 0.03 to 64 microg/ml; assay type: functional, organism-based; settings: dose 0.03-64 µg/ml
Kocuria rhizophila = experiment: Antibiotic activity against Kocuria rhizophila DSM-348 assessed as reduction in bacterial cell growth at 0.03 to 64 microg/ml; assay type: functional, organism-based; settings: dose 0.03-64 µg/ml
Bacillus subtilis = experiment: Antibiotic activity against Bacillus subtilis DSM-10 assessed as reduction in bacterial cell growth at 0.03 to 64 microg/ml; assay type: functional, organism-based; settings: dose 0.03-64 µg/ml
Staphylococcus carnosus = experiment: Antibiotic activity against Staphylococcus carnosus DSM-20501 assessed as reduction in bacterial cell growth at 0.03 to 64 microg/ml; assay type: functional, organism-based; settings: dose 0.03-64 µg/ml
[2] = Potency index, ratio of deferoxamine EC50 to compound EC50 for metal chelating activity assessed as compound-[…] complex formation by chrome-azurol S assay
Pseudomonas putida = experiment: Antibiotic activity against Pseudomonas putida assessed as reduction in bacterial cell growth at 0.03 to 64 microg/ml; assay type: functional, organism-based; settings: dose 0.03-64 µg/ml
[3] = Metal chelating activity assessed as compound-[…] complex formation at 10 to 100 uM by chrome-azurol S assay; settings: dose 10-100 µM

Row | EC50 [1] [µM] | Ratio EC50 [2] | Activity [3] | Structure (SMILES) | Activity (Staphylococcus aureus) | Activity (Escherichia coli) | Activity (HepG2) | Activity (Enterococcus mundtii) | Activity (Micrococcus luteus) | Activity (Erwinia persicina) | Activity (Kocuria rhizophila) | Activity (Bacillus subtilis) | Activity (Staphylococcus carnosus) | Activity (Pseudomonas putida)
1 | 18 | – | – | O=C(O)CN(CCN(CC(=O)O)CC(=O)O)CC(=O)O [EDETIC ACID] | – | – | – | – | – | – | – | – | – | –
2 | 58 | 5 | – | C[C@@H](O)[C@H](C(=O)O)N(O)C(=O)CCCCCCCCCCCCCCC(=O)O | inactive | inactive | Non-Toxic | inactive | inactive | inactive | inactive | inactive | inactive | inactive
3 | – | – | inactive | CC(=O)N[C@@H](CSC(CCCCCCCCCCCCCC(=O)O)C(=O)N[C@@H](C(=O)O)[C@@H](C)O)C(=O)O (stereo partly specified) | inactive | inactive | Non-Toxic | inactive | inactive | inactive | inactive | inactive | inactive | inactive
4 | 11 | – | – | CC(=O)N(O)CCCCCNC(=O)CCC(=O)N(O)CCCCCNC(=O)CCC(=O)N(O)CCCCCN [DEFEROXAMINE] | – | – | – | – | – | – | – | – | – | –
5 | 75 | – | – | CC(CCCCCCCCCCCCC(=O)N(O)[C@@H](C(=O)O)[C@@H](C)O)C(=O)O (stereo partly specified) | – | – | – | – | – | – | – | – | – | –
